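Results reflect a 48-hour exposure of cells in 96-well plates to compound at five concentrations. At the GI50, growth is halved.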 Activity calls are given as the source filed them. No stated cut-off is given here; in the data, active = GI50 up to about 1.1 µM and inactive = higher.
Legend:
Assay in all cases: inhibition of tumour cell growth, NCI panel, 48 h
SK-OV-3 = system: SK-OV-3
SW-620 = system: SW-620
A549 = system: A549
OVCAR-3 = system: OVCAR-3
MDA-MB-435 = system: MDA-MB-435
SR = system: SR
CAKI-1 = system: CAKI-1
OVCAR-5 = system: OVCAR-5
ACHN = system: ACHN
HCT-116 = system: HCT-116
MCF7 = system: MCF7
DU-145 = system: DU-145
MDA-N = system: MDA-N
HCC 2998 = system: HCC 2998
SF-539 = system: SF-539
CCRF-CEM = system: CCRF-CEM
SK-MEL-5 = system: SK-MEL-5
A498 = system: A498
RXF 393 = system: RXF 393
MDA-MB-231 = system: MDA-MB-231

Compound	GI50 (SK-OV-3)	GI50 (SW-620)	GI50 (A549)	GI50 (OVCAR-3)	GI50 (MDA-MB-435)	GI50 (SR)	GI50 (CAKI-1)	GI50 (OVCAR-5)	GI50 (ACHN)	GI50 (HCT-116)	GI50 (MCF7)	GI50 (DU-145)	GI50 (MDA-N)	GI50 (HCC 2998)	GI50 (SF-539)	GI50 (CCRF-CEM)	GI50 (SK-MEL-5)	GI50 (A498)	GI50 (RXF 393)	GI50 (MDA-MB-231)
CC(=O)N1N=C(c2c(O)ccc3ccccc23)CC1c1ccc(Cl)cc1 (stereo not given)	28.4 µM (inactive)	28.4 µM (inactive)	23.6 µM (inactive)	14.1 µM (inactive)	22.4 µM (inactive)	6.35 µM (inactive)	32.9 µM (inactive)	14.7 µM (inactive)	25.5 µM (inactive)	15 µM (inactive)	15.5 µM (inactive)	43.8 µM (inactive)	19.5 µM (inactive)	17.7 µM (inactive)	18.4 µM (inactive)	3.8 µM (inactive)	21 µM (inactive)	26.1 µM (inactive)	17.1 µM (inactive)	19.1 µM (inactive)
COC(=O)CC(C#N)(OP1(=O)OC(c2ccccc2)C(C)N1C)c1ccccc1 (stereo not given)	40.5 µM (inactive)	17.3 µM (inactive)	34.3 µM (inactive)	18.8 µM (inactive)	21.4 µM (inactive)	25.9 µM (inactive)	25.4 µM (inactive)	27.4 µM (inactive)	25.9 µM (inactive)	24.2 µM (inactive)	28.2 µM (inactive)	32.4 µM (inactive)	26.8 µM (inactive)	16.6 µM (inactive)	37.5 µM (inactive)	11.5 µM (inactive)	64.3 µM (inactive)	44.6 µM (inactive)	20.6 µM (inactive)	42.4 µM (inactive)
CN(C)c1n/c(=N/Cc2ccccn2)ss1	> 10 µM (inactive)	> 6.4 µM (inactive)	> 10 µM (inactive)	> 10 µM (inactive)	> 10 µM (inactive)	1.93 µM (inactive)	> 7.94 µM (inactive)	7.38 µM (inactive)	> 10 µM (inactive)	7.98 µM (inactive)	0.409 µM (active)	> 10 µM (inactive)	> 10 µM (inactive)	> 10 µM (inactive)	> 10 µM (inactive)	1.24 µM (inactive)	> 10 µM (inactive)	> 10 µM (inactive)	> 8.79 µM (inactive)	> 10 µM (inactive)
CC1=NN(c2nc(N)nc(/C(C#N)=C/c3cccn3-c3cc(Cl)cc(Cl)c3)n2)C(C)(C)C1	> 100 µM (inactive)	> 100 µM (inactive)	> 100 µM (inactive)	> 100 µM (inactive)	> 100 µM (inactive)	1.42 µM (inactive)	> 100 µM (inactive)	> 100 µM (inactive)	> 100 µM (inactive)	> 100 µM (inactive)	> 100 µM (inactive)	> 100 µM (inactive)	> 100 µM (inactive)	> 100 µM (inactive)	> 100 µM (inactive)	4.47 µM (inactive)	> 100 µM (inactive)	> 100 µM (inactive)	> 100 µM (inactive)	41.2 µM (inactive)

From ChEMBL document CHEMBL1201862, “PubChem BioAssay data set” (2004)
